Experimental data reported in ChEMBL document CHEMBL5576096, “Triplinones A-H: Anti-Inflammatory Arylalkenyl α,β-Unsaturated-δ-Lactones Isolated from the Leaves of Australian Rainforest Plant Cryptocarya triplinervis (Lauraceae)” (J Nat Prod, 2024).

Key:
[1] = test system: RAW264.7; experiment: Inhibition of NO production in LPS/IFNgamma-stimulated mouse RAW264.7 cells preincubated for 1 hr followed by LPS/IFNgamma addition and measured after 24 hrs by griess reagent based assay; type: functional, cell-based
[2] = Inhibition of TNF-alpha production in LPS/IFNgamma-stimulated mouse RAW264.7 cells preincubated for 1 hr followed by LPS/IFNgamma addition and measured after 24 hrs by ELISA; type: functional, cell-based
[3] = Therapeutic index, ratio of LC50 for cytotoxicity against LPS/IFNgamma-stimulated mouse RAW264.7 cells to IC50 for inhibition of NO production in LPS/IFNgamma-stimulated mouse RAW264.7 cells; type: toxicity, cell-based; conditions: LPS/IFNgamma-stimulated RAW264.7 cells, read-out: Ratio LC50/IC50
[4] = Cytotoxicity against LPS/IFNgamma-stimulated mouse RAW264.7 cells assessed as reduction in cell viability after 24 hrs by Alamar Blue assay; type: toxicity, cell-based; conditions: LPS/IFNgamma-stimulated RAW264.7 cells, read-out: LC50

| Compound | IC50 [1] [µM] | IC50 [2] [µM] | selectivity ratio [3] | CC50 at 24 h [4] [µM] |
| --- | --- | --- | --- | --- |
| O=C1C=CC[C@H](CCC[C@H](O)C[C@@H](O)CC/C=C/c2ccccc2)O1 | 6 | 27.4 | 5.6 | 33.4 |
| O=C1C=CC[C@H](C[C@@H](O)CCC[C@H](O)C[C@@H](O)CC/C=C/c2ccccc2)O1 | 15 | 28.9 | 2.8 | 41.3 |
| O=C1C=CC[C@H](C[C@H](O)C[C@@H](O)CC/C=C/c2ccccc2)O1 | 5.6 | 29.4 | 6.8 | 37.6 |
| O=C1C=CC[C@H](C[C@@H](O)C[C@H](O)C[C@@H](O)CC/C=C/c2ccccc2)O1 | 102 | > 278 | > 2.7 | > 278 |
| O=C1C=CC[C@H](/C=C/C[C@H](O)C[C@@H](O)CC/C=C/c2ccccc2)O1 | 7.3 | 28.3 | 10.9 | 79.8 |
| O=C1C=CC[C@H](/C=C/C=C/C[C@H](O)C[C@@H](O)CC/C=C/c2ccccc2)O1 | 5.4 | 27.9 | 7.6 | 41.3 |
| CC(=O)O[C@H](C[C@@H](O)CC/C=C/c1ccccc1)C[C@H]1CC=CC(=O)O1 | 10.3 | 17.1 | 9.5 | 97.9 |
| O=C1C=CC[C@H](CC(O)/C=C/C[C@H](O)C[C@@H](O)CC/C=C/c2ccccc2)O1 (stereo partly specified) | 64.7 | 39.1 | 2.5 | 159 |
| COc1cc(/C=C/C(=O)CC(=O)/C=C/c2ccc(O)c(OC)c2)ccc1O [CURCUMIN] | 22.5 | 31.2 | 3.2 | 73 |
